Source: patent US5137889A, “Dihydropyridine derivatives and process for preparing the same” (Otsuka Pharmaceutical Co., Ltd., priority 1983, dated 1992)
Read-outs that look alike come from different tables or passages of the source.

What was measured:
[1] = target: T1, Calmodulin-cyclic-AMP phosphodiesterase (Bos taurus, UniProt P62157); assay: Calmodulin-cyclic-AMP phosphodiesterase inhibitory activity (presence of calmodulin); assay type: biochemical, bovine
T1 construct: tissue Amano & Co. (calmodulin only); host or cells: phosphodiesterase: bovine heart, partially purified; calmodulin: bovine brain
Excerpt: (1) Calmodulin: A calmodulin product manufactured by Amano & Co., which was isolated from the brain of bovine, and purified so as to be considered as a single substance with respect to SDS-page (polyacrylamide gel electrophoresis) method.
(§1) (2) Calmodulin-dependent cyclic-AMP phosphodiesterase (EC 3.1.4.17): An enzyme substance isolated from the heart of bovine and purified partially by a method of modified version of the disclosure in H. C. Ho, T. S. Teo, et al.: "Biochim. Biophys. Acta", 429, 461 (1976).
(§2) (3) 5'-Nucleotidase (EC 3.1.3.5): Grade IV substance (isolated from Crotalus adamanteus venom) manufactured by Sigma & Co.
(§3) (4) Others: Remainder of the reagents used in the test were those of reagent grade chemicals manufactured by Wako Pure-Chemical Industries, Ltd.
(§4) Calmodulin inhibitory activity of each of the test compounds was measured by a method of modified version of the disclosure in T. S. Teo and T. H. Wang: "J. Bio. Chem.", 248, 588 (1973).
(2) Calmodulin: One unit thereof stimulates 0.015 activated unit of cyclic-AMP phosphodiesterase to 50% of the maximum activity of the enzyme.
(§5) (3) 5'-Nucleotidase: One unit thereof hydrolyzes 1.0 micromole of inorganic phosphorus from adnosine 5'-monophosphate per minute at pH 9.0 at 37° C.
(1) Calmodulin-cyclic-AMP phosphodiesterase inhibitory activity:
40 mM of Imidazol, 20 mM of MgCl2, 20 mM of CaC12, 0.008 unit of cyclic-AMP phosphodiesterase, 1.0 unit of calmodulin, 0.2 unit of 5'-nucleotidase and 1.0 ml of 10 mM-tris(hydroxymethyl)aminomethane/HCl buffer solution (pH 7.0) containing 0.5 mM of cyclic-AMP were mixed together, and reacted at 30° C. for 30 minutes. Each of the test compounds was dissolved in methanol or N,N-dimethylformamide as the solvent, provided that the quantity of the solvent was not exceed 2% of the total amount of the mixture. After the reaction was completed, the reaction mixture was ice-cooled, and 0.5 ml each of aqueous solutions of 16.5%-trichloroacetic acid, 1%-thiourea, 3%-ammonium ferrous sulfate were respectively added to the reaction mixture. Further, 0.15 ml of 4.4%-ammonium molibdate solution was added to the mixture and the whole of the mixture was stirred, and was centrifuged at 3,000 r.p.m. for 10 minutes. Then, the centrifuged mixture was allowed to stand at a room temperature for 20 minutes. The OD660 nm (optical density at 660 nm) was measured.

[2] = target: T2, Cyclic-AMP phosphodiesterase (Bos taurus, UniProt P14100); assay: Cyclic AMP phosphodiesterase inhibitory activity (absence of calmodulin, EGTA in place of CaCl2); assay type: biochemical, bovine; conditions: 1 mM EGTA in place of CaCl2; 3 hours
T2 construct: from tissue; host or cells: bovine heart, partially purified
T2 sequence (P14100 1-514 isoform P14100-2): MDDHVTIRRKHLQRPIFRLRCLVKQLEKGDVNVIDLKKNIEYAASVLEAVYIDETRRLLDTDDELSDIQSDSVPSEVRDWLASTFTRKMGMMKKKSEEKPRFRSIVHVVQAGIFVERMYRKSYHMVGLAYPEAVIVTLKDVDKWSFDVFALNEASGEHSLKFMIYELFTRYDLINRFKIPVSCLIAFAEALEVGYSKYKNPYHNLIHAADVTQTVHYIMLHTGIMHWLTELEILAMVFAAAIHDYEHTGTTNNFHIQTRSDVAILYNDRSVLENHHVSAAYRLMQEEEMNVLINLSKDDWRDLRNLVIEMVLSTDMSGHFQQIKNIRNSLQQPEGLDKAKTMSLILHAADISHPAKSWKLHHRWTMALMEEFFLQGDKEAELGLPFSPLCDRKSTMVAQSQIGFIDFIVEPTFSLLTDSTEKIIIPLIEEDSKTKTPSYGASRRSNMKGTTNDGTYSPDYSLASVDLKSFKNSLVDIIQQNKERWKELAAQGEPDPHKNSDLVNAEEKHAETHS
Excerpt: as §1, §2, §3, §4, §5
(2) Cyclic AMP phosphodiesterase inhibitory activity:
The reaction was conducted by a method similar to that described in (1) as mentioned above, except that 1 mM of EGTA [ethylene glycol-bis(β-amino ethyl ether)-N,N-tetraacetic acid] was used in place of 20 mM of CaCl2. The reaction was conducted for 3 hours.

[3] = system: SHR-rats (spontaneously hypertensive rats); conditions: 30 mg/kg p.o.
Procedure: Systolic blood pressures and heart beat of SHR-rats (spontaneously hypertensive rats) were determined by a "tail cuff method". Thus the test animal was placed in a thermostat chamber (Type: FR-12RS, manufactured by Isuze & Co.) and was warmed at 40° C. for 15 minutes so as to vasodilate the tail arteria, the systolic blood pressures were measured by an electro sphygmomanometer (Type: PE-300, manufactured by Narco-Biosystems, Inc.) and recorded by an ink-writing recorder (Type: RECTI-HORIZ 8s, manufactured by San-Ei Instrument & Co.). The experiments were conducted under non-anesthetized and semi-confinement conditions. The test compound was orally administered forcedly by using a sonde for oral administration. The test compound was suspended in 0.15%-gum arabic powder aqueous solution so as to make the quantity of the test compound to 2.5 ml/kg. The test animal was not fasted, and the systolic blood pressures (mm-Hg) were measured before the administration (hereinafter referred to as "PRE") and after the administration (8, 24, 30, 48, 54 and 72 hours after the administration) of the test compound. The data of systolic blood pressure measured before the administration are shown in absolute value of mmHg, and the data measured after the administration are shown in the differences from the absolute values.

[4] = with calmodulin and CaCl2, pH 7.0, 30° C., 30 minutes, read-out: Calmodulin-cyclic-AMP phosphodiesterase IC50 (converted)

| Molecule | IC50 [1, 4] [µM] | IC50 [2] [µM] | also measured |
| --- | --- | --- | --- |
| COC(=O)C1=C(C)NC(C)=C(C(=O)OC/C=C/c2ccc(O)cc2)C1c1ccccc1C(F)(F)F (stereo not drawn) [Example 14] | 12.8 | – | – |
| COC(=O)C1=C(C)NC(C)=C(C(=O)OC/C=C/c2ccccc2)C1c1cccc([N+](=O)[O-])c1 (stereo not drawn) [Test Compound 2, Methyl 3-phenyl-2(E)-propenyl 1,4-dihydro-2,6-dimethyl-4-(3-nitrophenyl)pyridine-3,5-dicarboxylate] | 5.57 | – | – |
| COC(=O)C1=C(C)NC(C)=C(C(=O)OC/C=C/C=C/c2ccc(O)cc2)C1c1cccc([N+](=O)[O-])c1 (stereo not drawn) [Test Compound 3, Methyl 5-(4-hydroxyphenyl)-2(E),4(E)-pentadienyl 1,4-dihydro-2,6-dimethyl-4-(3-nitrophenyl)-pyridine-3,5-dicarboxylate] | 1.73 | – | – |
| COC(=O)C1=C(C)NC(C)=C(C(=O)OC/C=C/c2ccc(O)c(OC)c2)C1c1cccc([N+](=O)[O-])c1 (stereo not drawn) [Test Compound 7, Methyl 3-(3-methoxy-4-hydroxyphenyl)-2(E)-propenyl 1,4-dihydro-2,6-dimethyl-4-(3-nitrophenyl)pyridine-3,5-dicarboxylate] | 10.5 | – | – |
| COC(=O)C1=C(C)NC(C)=C(C(=O)OC/C=C/c2ccc(OC)cc2)C1c1cccc([N+](=O)[O-])c1 (stereo not drawn) [Test Compound 8, Methyl 3-(4-methoxyphenyl)-2(E)-propenyl 1,4-dihydro-2,6-dimethyl-4-(3-nitrophenyl)-pyridine-3,5-dihydrocarboxylate] | 5.64 | – | – |
| COC(=O)C1=C(C)NC(C)=C(C(=O)OC/C=C/c2nnnn2C)C1c1cccc([N+](=O)[O-])c1 (stereo not drawn) [Test Compound 9, Methyl 3-(1-methyl-1,2,3,4-tetrazol-5-yl)-2(E)-propenyl 1,4-dihydro-2,6-dimethyl-4-(3-nitrophenyl)pyridine-3,5-dicarboxylate] | 11.7 | 79.2 | – |
| COC(=O)C1=C(C)NC(C)=C(C(=O)OC/C=C/c2ccco2)C1c1cccc([N+](=O)[O-])c1 (stereo not drawn) [Test Compound 10, Methyl 3-furyl-2(E)-propenyl 1,4-dihydro-2,6-dimethyl-4-(3-nitrophenyl)pyridine-3,5-dicarboxylate] | 3.54 | > 228 | – |
| COC(=O)C1=C(C)NC(C)=C(C(=O)OC/C=C/c2ccc(O)c(Cl)c2)C1c1cccc([N+](=O)[O-])c1 (stereo not drawn) [Test Compound 11, Methyl 3-(3-chloro-4-hydroxyphenyl)-2(E)-propenyl 1,4-dihydro-2,6-dimethyl-4-(3-nitrophenyl)pyridine-3,5-dicarboxylate] | 10.6 | 200 | – |
| COC(=O)C1=C(C)NC(C)=C(C(=O)OC/C=C/c2ccccc2O)C1c1cccc([N+](=O)[O-])c1 (stereo not drawn) [Test Compound 13, Methyl 3-(2-hydroxyphenyl)-2(E)-propenyl 1,4-dihydro-2,6-dimethyl-4-(3-nitrophenyl)-pyridine-3,5-dicarboxylate] | 3.55 | – | – |
| COC(=O)C1=C(C)NC(C)=C(C(=O)OC/C=C/c2ccc(OC(C)=O)cc2)C1c1cccc([N+](=O)[O-])c1 (stereo not drawn) [Test Compound 16, Methyl 3-(4-acetyloxyphenyl)-2(E)-propenyl 1,4-dihydro-2,6-dimethyl-4-(3-nitrophenyl)-pyridine-3,5-dicarboxylate] | 5.92 | – | – |
| COC(=O)C1=C(C)NC(C)=C(C(=O)OCCN2CC=C(c3ccc(C)cc3)CC2)C1c1cccc([N+](=O)[O-])c1 (stereo not drawn) [Test Compound 17, Methyl 2-[4-(4-methylphenyl)-1,2,3,6-tetra-hydropyridyl]ethyl 1,4-dihydro-2,6-dimethyl-4-(3-nitrophenyl)pyridine-3,5-dicarboxylate] | 10.3 | > 188 | – |
| COC(=O)C1=C(C)NC(C)=C(C(=O)OC/C=C/c2ccc(O)cc2)C1c1ccccc1 (stereo not drawn) [Test Compound 18, Methyl 3-(4-hydroxyphenyl)-2(E)-propenyl 1,4-dihydro-2,6-dimethyl-4-phenylpyridine-3,5-dicarboxylate] | 16.2 | – | – |
| COC(=O)C1=C(C)NC(C)=C(C(=O)OC/C=C/c2ccc(O)cc2)C1c1ccccc1C (stereo not drawn) [Test Compound 19, Methyl 3-(4-hydroxyphenyl)-2(E)-propenyl 1,4-dihydro-2,6-dimethyl-4-(2-methylphenyl)-pyridine-3,5-dicarboxylate] | 13.4 | – | – |
| COC(=O)C1=C(C)NC(C)=C(C(=O)OC/C=C/c2ccc(O)cc2)C1c1ccc(OC)c(OC)c1 (stereo not drawn) [Test Compound 20, Methyl 3-(4-hydroxyphenyl)-2(E)-propenyl 1,4-dihydro-2,6-dimethyl-4-(3,4-dimethoxy-phenyl)pyridine-3,5-dicarboxylate] | 6.67 | 62.6 | – |
| COC(=O)C1=C(C)NC(COC/C=C/c2ccc(O)cc2)=C(C(=O)OC)C1c1cccc([N+](=O)[O-])c1 (stereo not drawn) [Test Compound 21, Dimethyl 1,4-dihydro-2-[3-(4-hydroxyphenyl)-2(E)-propenyloxymethyl]-6-methyl-4-(3-nitrophenyl)pyridine-3,5-dicarboxylate] | 12.1 | > 202 | – |
| COC(=O)C1=C(C)NC(C)=C(C(=O)OCC#Cc2cccs2)C1c1cccc([N+](=O)[O-])c1 (stereo not drawn) [Test Compound 22, Methyl 3-(2-thienyl)-2-propynyl 1,4-dihydro-2,6-dimethyl-4-(3-nitrophenyl)pyridine-3,5-dicarboxylate] | 2.43 | > 221 | – |
| COC(=O)C1=C(C)NC(C)=C(C(=O)OCCN2CCN(CC#Cc3ccccc3)CC2)C1c1cccc([N+](=O)[O-])c1 (stereo not drawn) [Test Compound 23, Methyl 2-[4-(3-phenyl-2-propynyl)-1-piperazinyl]ethyl 1,4-dihydro-2,6-dimethyl-4-(3-nitrophenyl)pyridine-3,5-dicarboxylate] | 14.3 | > 179 | – |
| COC(=O)C1=C(C)NC(C)=C(C(=O)OC/C=C/c2ccc(O)cc2)C1c1ccc(Cl)cc1Cl (stereo not drawn) [Test Compound 24, Methyl 3-(4-hydroxyphenyl)-2(E)propenyl 1,4-dihydro-2,6-dimethyl-4-(2,4-dichloro-phenyl)pyridine-3,5-dicarboxylate] | 5.02 | 30.7 | – |
| COC(=O)C1=C(C)NC(C)=C(C(=O)OCCN(C)Cc2ccccc2)C1c1cccc([N+](=O)[O-])c1 (stereo not drawn) [Test Compound 26, Methyl 2-(N-methyl-N-benzylamino)ethyl 1,4-dihydro-2,6-dimethyl-4-(3-nitrophenyl)pyridine-3,5-dicarboxylate, reference compound] | – | – | IC50 [1]: 13 µM |
| methyl 3-(4-tetrahydropyranyloxyphenyl)-2(E)-propenyl 1,4-dihydro-2,6-dimethyl-4-(3-nitrophenyl)pyridine-3,5-dicarboxylate [Example 1] | – | – | Blood pressure after the administration, 8 hours (difference from the absolute value before administration) ([3]; 8 hours): -20.3 mm-Hg; Blood pressure after the administration, 24 hours (difference from the absolute value before administration) [3]: -41.0 mm-Hg; Blood pressure after the administration, 24 hours (difference from the absolute value before administration) ([3]; listed as 6): +1.8 mm-Hg; Blood pressure after the administration, 30 hours (difference from the absolute value before administration) [3]: -52.0 mm-Hg; Blood pressure after the administration, 48 hours (difference from the absolute value before administration) [3]: -26.5 mm-Hg; Blood pressure after the administration, 54 hours (difference from the absolute value before administration) [3]: -19.8 mm-Hg; Blood pressure after the administration, 72 hours (difference from the absolute value before administration) ([3]; 72 hours): -12.5 mm-Hg |
| methyl 3-[4-(2-tetrahydropyranyloxyphenyl)]-2-propynyl 1,4-dihydro-2,6-dimethyl-4-(3-nitrophenyl)pyridine-3,5-dicarboxylate [Example 3] | – | – | Blood pressure after the administration, 24 hours (difference from the absolute value before administration) [3]: -31.0 mm-Hg; Blood pressure after the administration, 30 hours (difference from the absolute value before administration) [3]: -30.8 mm-Hg; Blood pressure after the administration, 48 hours (difference from the absolute value before administration) [3]: -15.6 mm-Hg; Blood pressure after the administration, 54 hours (difference from the absolute value before administration) [3]: -12.6 mm-Hg |
